# In patent US20250154198A1, “PEPTIDE INHIBITORS OF INTERLEUKIN-23 RECEPTOR” (Zealand Pharma A/S, priority 2021, published 2025):
# *1 amine or outer side, *2 acyl side, *3 side chain or, on linkers, in order; H or OH if unused. Where a SMILES comes first, the peptide text is derived from it. Bridges are numbered along the chain shown (N, C = ends). [ ]: non-standard residue; d: D form. Bip = N[C@@H](Cc1ccc(-c2ccccc2)cc1)C(=O)O; 2Nal = N[C@@H](Cc1ccc2ccccc2c1)C(=O)O; AEF = NCCOc1ccc(C[C@H](N)C(=O)O)cc1; αMeL = CC(C)C[C@](C)(N)C(=O)O; CH2COCH2 = O=C(C[*:1])C[*:2]; αMeK = C[C@](N)(CCCCN)C(=O)O
# Tests used:
# human IL-23R = target: T1, human IL-23R (Homo sapiens, UniProt Q5VWK5); assay: Binding assay (NanoBRET displacement of fluorophore-labelled reference compound) for estimating binding affinity to human IL-23R; settings: Table 3-1; read-out: Ki hIL-23R
# T1 construct: UniProtKB—Q5VWK5, amino acids 22-629; secretion signal of the plasmid (Promega N1371); expressed in transfected cells
# T1 sequence (Q5VWK5 22-629): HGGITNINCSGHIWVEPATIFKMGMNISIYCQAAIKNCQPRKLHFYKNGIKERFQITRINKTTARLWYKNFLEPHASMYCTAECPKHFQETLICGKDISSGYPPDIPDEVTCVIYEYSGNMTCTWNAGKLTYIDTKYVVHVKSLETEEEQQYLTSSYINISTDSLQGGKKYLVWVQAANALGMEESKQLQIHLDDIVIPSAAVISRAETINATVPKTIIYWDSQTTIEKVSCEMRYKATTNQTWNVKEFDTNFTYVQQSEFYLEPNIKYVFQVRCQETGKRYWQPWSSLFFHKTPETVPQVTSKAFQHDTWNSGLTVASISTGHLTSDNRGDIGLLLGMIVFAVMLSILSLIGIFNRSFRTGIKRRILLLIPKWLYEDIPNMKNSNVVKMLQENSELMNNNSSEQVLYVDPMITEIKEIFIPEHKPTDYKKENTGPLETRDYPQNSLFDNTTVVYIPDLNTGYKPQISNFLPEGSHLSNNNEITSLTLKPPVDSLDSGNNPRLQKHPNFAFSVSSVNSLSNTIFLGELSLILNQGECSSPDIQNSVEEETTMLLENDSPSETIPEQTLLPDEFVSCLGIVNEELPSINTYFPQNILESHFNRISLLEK
# [1] = target: IL-23 mediated phospho-STAT3 formation in DB cells (Homo sapiens, UniProt Q5VWK5); assay: Functional inhibition of IL-23 mediated STAT3 signalling (phospho-STAT3 Tyr705 MSD) in DB cells; format: cell-based; settings: Table 3-1; DB cells; read-out: IC50 (pSTAT3)
# Text: Functional Inhibition of IL-23 Mediated STAT3 Signalling by Compounds
# Upon binding of IL-23, the IL-23R forms a heterodimer signalling complex together with IL-12R β1, which through the JAK2/STAT3 pathway promotes phosphorylation of STAT3 to form phospho-STAT3.
# The assay was used to quantify the functional antagonism of a compound and to rank order the inhibitor compounds according to their potency. For compounds tested in this assay, the response was normalized relative to control values to calculate the IC50 and maximal inhibitory response from a concentration response curve of the compound in presence of a fixed concentration of human IL-23.
# The assay procedure was as follows. […] Following preincubation of the DB cells with inhibitor for 15 min in a cell incubator (37° C., 5% CO2), 20 μL of the prepared 3× the EC80 of hIL-23 solution was added to each well and incubated for 90 min in a cell incubator (37° C., 5% CO2). For some wells buffer only or IL-23 only corresponding to the EC80 was added to obtain readouts needed for normalization. To terminate the assay, the plate was spun at 1000 G for 5 min to pellet cells, the supernatant removed using an 8-channel manual pipette, and then added 50 μL/well Complete Lysis Buffer from the MSD STAT3 kit (Cat #K150SVD, Mesoscale) to the cell pellet. To completely lyse cells to release phospho-STAT3 for detection, the plate was shaken for 10 min at room temperature (500 rpm) sealed with aluminum foil and placed at −80° C. for a minimum of 15 min. Detection of the phospho-STAT3 level in the cell lysate from the individual wells was determined using the MSD STAT3 kit (Cat #K150SVD, Mesoscale) and read on a Meso QuickPlex SQ 120 plate reader (Mesoscale).
# For data analysis raw data counts from the Meso QuickPlex SQ 120 plate reader were normalized relative to the response by the EC80 of hIL-23 alone (no compound added) and the buffer level. Compound potency (IC50) and maximal inhibitory response (% inhibition) were estimated by computer-aided curve fitting using a 4-parameter logistic (4PL) non-linear model.
# [2] = Peptide stability in simulated intestinal fluid (SIF); format: in vitro ADME; settings: pig, simulated intestinal fluid (SIF) with porcine pancreatin, Table 3-2, porcine pancreatin, pH 6.8, 37° C., 10 μM; for remaining at 4 h, 10 μM: read-out: SIF (% remaining 4 h)
# Experimental: Determination of Peptide Stability in Simulated Gastric Fluid (SGF) and Simulated Intestinal Fluid (SIF)
# SGF was prepared by dissolving sodium chloride (0.2 g) in 50 mL of water. A volume of 0.7 mL of 10 M HCl was added to adjust the pH of the solution to 1.2 and the volume made up to 100 mL with water. […] SIF was prepared by dissolving monobasic potassium phosphate (0.68 g) in 50 mL of water and adjusting the pH to 6.8 with 1 M NaOH. The volume was subsequently made up to 100 mL with water. 200 mg porcine pancreatin (P1625, Sigma Aldrich) was gently dissolved into 20 mL preheated (37° C.) solution (10 g/L) immediately prior to the incubation.
# The incubation was performed at 37° C. with gentle shaking. […] After the last timepoint, the sampling plate was mixed for 10 min on a shaking table and centrifuged 10 min at 2200 g. 70 μL resulting supernatant was diluted with 150 μL water, mixed and centrifugated before analysis by liquid chromatography high resolution mass spectrometry. […] Percent remaining at each timepoint was calculated relative to timepoint zero based on absolute peak areas.
Structure (SMILES),Ki (human IL-23R),IC50 [1],"remaining at 4 h, 10 μM [2]","remaining at 1 h, 10 μM ([2]; 1 h, read-out: SIF (% remaining 1 h))"
"CC(=O)N[C@@H](CC(=O)O)C(=O)N[C@H]1CCC(=O)NCCCC[C@@H](C(=O)N[C@@H](CCCNC(=N)N)C(N)=O)NC(=O)[C@](C)(CC(C)C)NC(=O)[C@H](Cc2c[nH]c3ccccc23)NC(=O)[C@H](Cc2ccc(O)cc2)NC(=O)[C@@H]2CSCC(=O)CSC[C@H](NC(=O)[C@H](CCC(N)=O)NC1=O)C(=O)N[C@@H](Cc1c[nH]c3ccccc13)C(=O)N[C@@H](CCC(N)=O)C(=O)N2 [Compound 55, [Ac]-DE(1c)QC(2a)WQC(2a)YW[2-Me-Leu]K(1c)R-[NH2]] (HELM PEPTIDE1{[ac].D.E.Q.C.W.Q.C.Y.W.[CC(C)C[C@](C)(N[*:1])C(=O)[*:2]].K.R.[am]}|CHEM1{[O=C(C[*:1])C[*:2]]}$PEPTIDE1,PEPTIDE1,3:R3-12:R3|PEPTIDE1,CHEM1,5:R3-1:R1|PEPTIDE1,CHEM1,8:R3-1:R2$$$V2.0)",,> 1000 nM,,
"CC(=O)N[C@H]1CCCCNC(=O)CC[C@@H](C(=O)N[C@@H](CCCNC(=N)N)C(N)=O)NC(=O)[C@H](CC(C)C)NC(=O)[C@H](Cc2ccc3ccccc3c2)NC(=O)[C@H](Cc2c[nH]c3ccccc23)NC(=O)[C@@H]2CSCC(=O)CSC[C@H](NC(=O)[C@H](CO)NC1=O)C(=O)N[C@@H](Cc1ccc3ccccc3c1)C(=O)N[C@@H](CCC(N)=O)C(=O)N2 [Compound 25, [Ac]-K(1c)SC(2a)[2-Nal]QC(2a)W[2-Nal]LE(1c)R-[NH2]] (Ac-KSC[2Nal]QCW[2Nal]LER-NH2; lactam 1-10; linker 3-6 via CH2COCH2)",,> 1000 nM,,
"CC(=O)N[C@H]1CCCCNC(=O)CC[C@@H](C(=O)N[C@H](CCCNC(=N)N)C(N)=O)NC(=O)[C@](C)(CC(C)C)NC(=O)[C@H](Cc2ccc3ccccc3c2)NC(=O)[C@H](Cc2ccc(OCCN)cc2)NC(=O)[C@@H]2CSCC(=O)CSC[C@H](NC(=O)[C@H]([C@@H](C)O)NC1=O)C(=O)N[C@@H](Cc1c[nH]c3ccccc13)C(=O)N[C@@H](CCC(N)=O)C(=O)N2 [Compound 85, [Ac]-K(1c)TC(2a)WQC(2a)[Y(2-aminoethoxy)][2-Nal][2-Me-Leu]E(1c)[{d}R]-[NH2]] (Ac-KTCWQC[AEF][2Nal][αMeL]E[dR]-NH2; lactam 1-10; linker 3-6 via CH2COCH2)",0.321 nM,,74%,
"CC(=O)N[C@H]1CCCCNC(=O)CC[C@@H](C(=O)N[C@@H](CCCNC(=N)N)C(N)=O)NC(=O)[C@@H](CC(C)C)NC(=O)[C@H](Cc2ccc3ccccc3c2)NC(=O)[C@H](Cc2ccc(OCCN)cc2)NC(=O)[C@@H]2CSCC(=O)CSC[C@H](NC(=O)[C@H](CO)NC1=O)C(=O)N[C@@H](Cc1c[nH]c3ccccc13)C(=O)N[C@@H](CCC(N)=O)C(=O)N2 [Compound 48, [Ac]-K(1c)SC(2a)WQC(2a)[Y(2-aminoethoxy)][2-Nal][{d}L]E(1c)R-[NH2]] (Ac-KSCWQC[AEF][2Nal][dL]ER-NH2; lactam 1-10; linker 3-6 via CH2COCH2)",17 nM,,0%,0%
"CC(=O)N[C@@H](CC(=O)O)C(=O)N[C@H]1CCC(=O)NCCCC[C@@H](C(=O)N[C@@H](CCCNC(=N)N)C(N)=O)NC(=O)[C@](C)(CC(C)C)NC(=O)[C@H](Cc2c[nH]c3ccccc23)NC(=O)[C@H](Cc2ccc3ccccc3c2)NC(=O)[C@@H]2CSCC(=O)CSC[C@H](NC(=O)[C@H](CCC(N)=O)NC1=O)C(=O)N[C@@H](Cc1c[nH]c3ccccc13)C(=O)N[C@@H](CCC(N)=O)C(=O)N2 [Compound 56, [Ac]-DE(1c)QC(2a)WQC(2a)[2-Nal]W[2-Me-Leu]K(1c)R-[NH2]] (Ac-DEQCWQC[2Nal]W[αMeL]KR-NH2; lactam 2-11; linker 4-7 via CH2COCH2)",,> 1000 nM,,

# Other lines, results leading:
Ki (human IL-23R),IC50 [1],"remaining at 4 h, 10 μM [2]","remaining at 1 h, 10 μM ([2]; 1 h, read-out: SIF (% remaining 1 h))",Structure (SMILES)
> 1000 nM,> 1000 nM,,,"CC(=O)N[C@H]1CCCCNC(=O)CC[C@@H](C(=O)N[C@@H](CCCNC(=N)N)C(N)=O)NC(=O)[C@H](CC(C)C)NC(=O)[C@H](Cc2ccc3ccccc3c2)NC(=O)[C@H](Cc2c[nH]c3ccccc23)NC(=O)[C@@H]2CSCC(=O)CSC[C@H](NC(=O)[C@H](CO)NC1=O)C(=O)N[C@@H](Cc1ccc(-c3ccccc3)cc1)C(=O)N[C@@H](CCC(N)=O)C(=O)N2 [Compound 26, [Ac]-K(1c)SC(2a)[Bip]QC(2a)W[2-Nal]LE(1c)R-[NH2]] (Ac-KSC[Bip]QCW[2Nal]LER-NH2; lactam 1-10; linker 3-6 via CH2COCH2)"
,> 1000 nM,,,"CC(=O)N[C@@H](CC(=O)O)C(=O)N[C@H]1CCC(=O)NCCCC[C@@H](C(=O)N[C@@H](CCC(=O)O)C(=O)N[C@@H](CC(N)=O)C(=O)NCC(N)=O)NC(=O)[C@](C)(CCCCN)NC(=O)[C@H](Cc2ccc3ccccc3c2)NC(=O)[C@H](Cc2c[nH]c3ccccc23)NC(=O)[C@@H]2CSCC(=O)CSC[C@H](NC(=O)[C@H](CO)NC1=O)C(=O)N[C@@H](Cc1c[nH]c3ccccc13)C(=O)N[C@@H](CCC(N)=O)C(=O)N2 [Compound 61, [Ac]-DE(1c)SC(2a)WQC(2a)W[2-Nal][2-Me-Lys]K(1c)ENG-[NH2]] (Ac-DESCWQCW[2Nal][αMeK]KENG-NH2; lactam 2-11; linker 4-7 via CH2COCH2)"
,> 1000 nM,,,"CC(=O)N[C@@H](CC(=O)O)C(=O)N[C@H]1CCC(=O)NCCCC[C@@H](C(N)=O)NC(=O)[C@H](CC(C)C)NC(=O)[C@H](Cc2c[nH]c3ccccc23)NC(=O)[C@H](Cc2c[nH]c3ccccc23)NC(=O)[C@@H]2CSCC(=O)CSC[C@H](NC(=O)[C@H](CO)NC1=O)C(=O)N[C@@H](Cc1c[nH]c3ccccc13)C(=O)N[C@@H](CCC(N)=O)C(=O)N2 [Compound 11, [Ac]-DE(1c)SC(2a)WQC(2a)WWLK(1c)-[NH2]] (HELM PEPTIDE1{[ac].D.E.S.C.W.Q.C.W.W.L.K.[am]}|CHEM1{[O=C(C[*:1])C[*:2]]}$PEPTIDE1,PEPTIDE1,3:R3-12:R3|PEPTIDE1,CHEM1,5:R3-1:R1|PEPTIDE1,CHEM1,8:R3-1:R2$$$V2.0)"
,> 1000 nM,,,"CC(=O)N[C@H]1CCC(=O)NCCCC[C@@H](C(N)=O)NC(=O)[C@H](CC(C)C)NC(=O)[C@H](Cc2c[nH]c3ccccc23)NC(=O)[C@H](Cc2c[nH]c3ccccc23)NC(=O)[C@@H]2CSCC(=O)CSC[C@H](NC(=O)[C@H](CO)NC1=O)C(=O)N[C@@H](Cc1c[nH]c3ccccc13)C(=O)N[C@@H](CCC(N)=O)C(=O)N2 [Compound 12, [Ac]-E(1c)SC(2a)WQC(2a)WWLK(1c)-[NH2]] (HELM PEPTIDE1{[ac].E.S.C.W.Q.C.W.W.L.K.[am]}|CHEM1{[O=C(C[*:1])C[*:2]]}$PEPTIDE1,PEPTIDE1,2:R3-11:R3|PEPTIDE1,CHEM1,4:R3-1:R1|PEPTIDE1,CHEM1,7:R3-1:R2$$$V2.0)"
